Like-named read-outs stand apart in the source and are kept apart here.

One experiment addresses CMV-polymerase (Human cytomegalovirus (strain AD169) (HHV-5) (Human herpesvirus 5), UniProt P08546). Briefly: biochemical.
In a further experiment the test system is CMV. Description: microbe, parasite or virus in culture. The class given is cell-based. The conditions noted are these: Human betaherpesvirus 5, 72 h, read-out: CMV-Luc Cellular EC50, NN-NHDF cells, MOI 1, 72 hrs.
Setting [1] is: read-out: CMV-polymerase Biochemical IC50.
Where [2] appears, read: CMV-polymerase Biochemical IC50.

Regarding `Cn1nc(C(=O)NCc2ccc(F)cc2)c2c1C(=O)N(CC1(S(=O)(=O)C(C)(C)CO)CC1)CC2` [Example 53, N-(4-Fluorobenzyl)-6-((1-((1-hydroxy-2-methylpropan-2-yl)sulfonyl)cyclopropyl)methyl)-1-methyl-7-oxo-4,5,6,7-tetrahydro-1H-pyrazolo[3,4-c]pyridine-3-carboxamide], the IC50 on CMV-polymerase (setting [1]) is 7 nM. In addition, the concentration giving a half-maximal response (EC50) in the experiment with CMV turned out to be 141 nM.
In the case of `Cn1nc(C(=O)NCc2ccc(C#N)cc2)c2c1C(=O)N(CC1(S(=O)(=O)C(C)(C)CNCCO)CC1)CC2` [Example 69, N-(4-Cyanobenzyl)-6-((1-((1-((2-hydroxyethyl)amino)-2-methylpropan-2-yl)sulfonyl)cyclopropyl)methyl)-1-methyl-7-ox0-4,5,6,7-tetrahydro-1H-pyrazolo[3,4-c]pyridine-3-carboxamide], the IC50 at CMV-polymerase (setting [1]) was determined as 1 nM. The EC50 in the experiment with CMV came out at 57 nM.
Molecule `Cn1nc(C(=O)NCc2ccc(C#N)cc2)c2c1C(=O)N(CC1(S(=O)(=O)C3(C)COC3)CC1)CC2` [Example 172, N-(4-Cyanobenzyl)-1-methyl-6-((1-((3-methyloxetan-3-yl)sulfonyl)cyclopropyl)methyl)-7-oxo-4,5,6,7-tetrahydro-1H-pyrazolo[3,4-c]pyridine-3-carboxamide] displayed an IC50 against CMV-polymerase (setting [2]) of 5 nM. Moreover, the EC50 in the experiment on CMV is 69 nM.
For the molecule `Cn1nc(C(=O)NCc2ccc(C#N)cc2)c2c1C(=O)N(CC1(S(=O)(=O)C3(C(O)CN)CC3)CC1)CC2` (centres unmarked) [Example 208, 6-((1-((1-(2-Amino-1-hydroxyethyl)cyclopropyl)sulfonyl)cyclopropyl)methyl)-N-(4-cyanobenzyl)-1-methyl-7-oxo-4,5,6,7-tetrahydro-1H-pyrazolo[3,4-c]pyridine-3-carboxamide], the IC50 at CMV-polymerase (setting [1]) is 1 nM. Also, the EC50 in the experiment with CMV came out at 51 nM.
The like results for `Cn1nc(C(=O)NCc2ccc(C#N)cc2)c2c1C(=O)N(CC1(S(=O)(=O)N3CCNCC3)CC1)CC2` [Example 133, N-(4-Cyanobenzyl)-1-methyl-7-oxo-6-((1-(piperazin-1-ylsulfonyl)cyclopropyl)methyl)-4,5,6,7-tetrahydro-1H-pyrazolo[3,4-c]pyridine-3-carboxamide] were, in that order, 20 nM and 97 nM.
For the molecule `COCC(C)(COC)S(=O)(=O)C1(CN2CCc3c(C(=O)NCc4ccc(C#N)cc4)nn(C)c3C2=O)CC1` [Example 179, N-(4-Cyanobenzyl)-6-((1-((1,3-dimethoxy-2-methylpropan-2-yl)sulfonyl)cyclopropyl)methyl)-1-methyl-7-oxo-4,5,6,7-tetrahydro-1H-pyrazolo[3,4-c]pyridine-3-carboxamide], the IC50 at CMV-polymerase (setting [1]) was determined as 2 nM. Moreover, the EC50 in the experiment with CMV turned out to be 49 nM.
With `Cn1nc(C(=O)NCc2ccc(C#N)cc2)c2c1C(=O)N(CC1(S(=O)(=O)C(C)(C)COCC(C)(C)N)CC1)CC2` [Example 103, 6-((1-((1-(2-Amino-2-methylpropoxy)-2-methylpropan-2-yl)sulfonyl)cyclopropyl)methyl)-N-(4-cyanobenzyl)-1-methyl-7-oxo-4,5,6,7-tetrahydro-1H-pyrazolo[3,4-c]pyridine-3-carboxamide], on CMV-polymerase (setting [2]), it took 9 nM to reach half-maximal inhibition (IC50). Besides, the EC50 in the experiment on CMV is 41 nM.
In the case of `Cn1nc(C(=O)NCc2ccc(C#N)c(F)c2)c2c1C(=O)N(CC1(S(C)(=O)=O)CC1)CC2` [Example 23, N-(4-Cyano-3-fluorobenzyl)-1-methyl-6-((1-(methylsulfonyl)cyclopropyl)methyl)-7-oxo-4,5,6,7-tetrahydro-1H-pyrazolo[3,4-c]pyridine-3-carboxamide], the IC50 on CMV-polymerase (setting [1]) is 7 nM. Besides, the EC50 in the experiment on CMV was 86 nM.
As to `Cc1cccnc1NS(=O)(=O)C1(CN2CCc3c(C(=O)NCc4ccc(C#N)cc4)nn(C)c3C2=O)CC1` [Example 164, N-(4-Cyanobenzyl)-1-methyl-6-((1-(N-(3-methylpyridin-2-yl)sulfamoyl)cyclopropyl)methyl)-7-oxo-4,5,6,7-tetrahydro-1H-pyrazolo[3,4-c]pyridine-3-carboxamide], the IC50 on CMV-polymerase (setting [1]) amounted to 6 nM. In addition, the concentration giving a half-maximal response (EC50) in the experiment on CMV stood at 157 nM.
With `Cn1nc(C(=O)NCc2ccc(C#N)cc2)c2c1C(=O)N(CC1(S(=O)(=O)C(C)(C)COC(F)(F)CO)CC1)CC2` [Example 84, N-(4-cyanobenzyl)-6-((1-((1-(1,1-difluoro-2-hydroxyethoxy)-2-methylpropan-2-yl)sulfonyl)cyclopropyl)methyl)-1-methyl-7-oxo-4,5,6,7-tetrahydro-1H-pyrazolo[3,4-c]pyridine-3-carboxamide], at CMV-polymerase (setting [2]), half-maximal inhibition (IC50) was put at 4 nM. Moreover, the EC50 in the experiment on CMV was found to be 51 nM.
`Cn1nc(C(=O)NCc2ccc(C#N)cc2)c2c1C(=O)N(CC1(S(=O)(=O)N3C[C@@H](N)[C@H](O)C3)CC1)CC2` [Example 139, 6-((1-(((3R,4R)-3-Amino-4-hydroxypyrrolidin-1-yl)sulfonyl)cyclopropyl)methyl)-N-(4-cyanobenzyl)-1-methyl-7-oxo-4,5,6,7-tetrahydro-1H-pyrazolo[3,4-c]pyridine-3-carboxamide]: at CMV-polymerase (setting [1]), the IC50 turned out to be 8 nM. Further, in the experiment on CMV, the EC50 is 533 nM.
As for `Cn1nc(C(=O)NCc2ccc(Cl)cc2)c2c1C(=O)N(CC1(S(N)(=O)=O)CC1)CC2` [Example 121, N-(4-chlorobenzyl)-1-methyl-7-oxo-6-((1-sulfamoylcyclopropyl)methyl)-4,5,6,7-tetrahydro-1H-pyrazolo[3,4-c]pyridine-3-carboxamide], the IC50 on CMV-polymerase (setting [2]) was 8 nM. Besides, the EC50 in the experiment on CMV was found to be 156 nM.
For `Cn1nc(C(=O)NCc2ccc(C#N)cc2)c2c1C(=O)N(CC1(S(=O)(=O)NC3COC3)CC1)CC2` [Example 132, N-(4-Cyanobenzyl)-1-methyl-6-((1-(N-(oxetan-3-yl)sulfamoyl)cyclopropyl)methyl)-7-oxo-4,5,6,7-tetrahydro-1H-pyrazolo[3,4-c]pyridine-3-carboxamide], the IC50 at CMV-polymerase (setting [1]) came to 20 nM. The EC50 with CMV is 289 nM.
The like results for `CC(C)(O)Cn1nc(C(=O)NCc2ccc(C#N)cc2)c2c1C(=O)N(CC1(S(C)(=O)=O)CC1)CC2` [Example 232, N-(4-Cyanobenzyl)-1-(2-hydroxy-2-methylpropyl)-6-((1-(methylsulfonyl)cyclopropyl)methyl)-7-oxo-4,5,6,7-tetrahydro-1H-pyrazolo[3,4-c]pyridine-3-carboxamide] were, in that order, 6 nM and 160 nM.
With `COC1CN(CC(C)(C)S(=O)(=O)C2(CN3CCc4c(C(=O)NCc5ccc(C#N)cc5)nn(C)c4C3=O)CC2)C1` [Example 66, N-(4-Cyanobenzyl)-6-((1-((1-(3-methoxyazetidin-1-yl)-2-methylpropan-2-yl)sulfonyl)cyclopropyl)methyl)-1-methyl-7-oxo-4,5,6,7-tetrahydro-1H-pyrazolo[3,4-c]pyridine-3-carboxamide], the IC50 on CMV-polymerase (setting [1]) was found to be 2 nM. Further, the EC50 with CMV came to 88 nM.
In the case of `CC(C)(CO)S(=O)(=O)C1(CN2CCc3c(C(=O)NCc4ccc(C#N)cc4)nn(CCO)c3C2=O)CC1` [Example 220, N-(4-Cyanobenzyl)-6-((1-((1-hydroxy-2-methylpropan-2-yl)sulfonyl)cyclopropyl)methyl)-1-(2-hydroxyethyl)-7-oxo-4,5,6,7-tetrahydro-1H-pyrazolo[3,4-c]pyridine-3-carboxamide], the IC50 at CMV-polymerase (setting [1]) was 1 nM. The EC50 in the experiment with CMV came out at 49 nM.

These data come from patent US12338220B2, “Antiviral pyrazolopiridinone compounds” (Novartis AG, priority 2019, dated 2025).
